≈ marks a conversion by molar mass, not a printed value. One block for each molecule: values may come before it.
Assays:
Format in all cases: functional
Artemia salina = assay: Insecticidal activity against Artemia salina; conditions: read-out: LD50 (the source's name)
Escherichia coli = assay: Antibacterial activity against Escherichia coli by well diffusion method
Staphylococcus aureus [1] = assay: Antibacterial activity against Staphylococcus aureus assessed as inhibition zone at 100 ug/disc by well diffusion method; conditions: read-out: IZ
Staphylococcus aureus [2] = assay: Antibacterial activity against Staphylococcus aureus by well diffusion method

SMILES: C=CC(C)(C)c1[nH]c2ccc(CC=C(C)C)cc2c1/C=C1\NC(=O)[C@H](C)NC1=O [ISOECHINULIN A]
- LC50 (Artemia salina): 16.9 µg/mL (≈ 43.2 µM)

- MIC (Escherichia coli): 64 µg/mL (≈ 189 µM)
SMILES: C=CC(C)(C)c1[nH]c2ccccc2c1/C=C1\NC(=O)[C@H](CO)NC1=O [CRISTATUMIN A]

SMILES: C=CC(C)(C)c1[nH]c2c(CC=C(C)C)cc(CC=C(C)C)cc2c1C[C@@H]1NC(=O)[C@H](CO)NC1=O [CRISTATUMIN B]
- LC50 (Artemia salina): 74.4 µg/mL (≈ 156 µM)

SMILES: C=CC(C)(C)c1[nH]c2ccccc2c1/C=C(\NC(=O)C(N)=O)C(=O)OC [CRISTATUMIN D]
- zone of inhibition at 100 µg/disc (Staphylococcus aureus [1]): 8 mm

SMILES: C=CC(C)(C)c1[nH]c2c(CC=C(C)C)cc(CC=C(C)C)cc2c1C[C@@H]1NC(=O)[C@H](C)NC1=O [ECHINULIN]
- zone of inhibition at 100 µg/disc (Staphylococcus aureus [1]): 8 mm

- MIC (Staphylococcus aureus [2]): 8 µg/mL (≈ 20.3 µM)
SMILES: C=CC(C)(C)c1[nH]c2ccc(CC=C(C)C)cc2c1C[C@@H]1NC(=O)[C@H](C)NC1=O [TARDIOXOPIPERAZINE A]

SMILES: O=C(N[C@H](CO)[C@H](O)c1ccc([N+](=O)[O-])cc1)C(Cl)Cl [CHLORAMPHENICOL]
- MIC (Staphylococcus aureus [2]): 4 µg/mL (≈ 12.4 µM)
- MIC (Escherichia coli): 4 µg/mL (≈ 12.4 µM)

SMILES: C=CC(C)(C)c1[nH]c2c(CC=C(C)C)cccc2c1/C=C1\NC(=O)[C@H](C)NC1=O [VARIECOLORIN G]
- LC50 (Artemia salina): 42.6 µg/mL (≈ 109 µM)
